What was measured:
Ci = Ci induction in cl-8 cells with or without HH-N conditioned medium, Western blot; assay type: cell-based, Drosophila
Procedure: cl-8 cells were cultured as described in Van Leeuwen, F., et al. Nature, 368:342-344, 1994. Culture and transfection of S2 cells were performed as described in Porter, J. A. et al. Cell, 86: 21-34, 1996. The conditioned medium was made by culturing transfected S2 cells in cl-8 medium, and induced by adding CUSO4, to the final concentration of 0.5 Mm overnight. The conditioned medium was harvested the next day, centrifuged to remove S2 cells and the supernatant was used. To make lysate from cl-8 cells, cl-8 cells were washed, harvested in cold phosphate buffered saline (PBS), and then resuspended in NP-40 lysis buffer (150 Mm NaCl, 50 Mm Tris pH8, 1% NP-40, 1 Mm EDTA, 20 μg/ml aprotinin, 20 μg/ml leupeptin, 1 μg/ml pepstatin A, 2.5 μg/ml antipain, 100 μM PMSF, 50 mM NaF, 5 mM Na2P4O7). Cells were lysed at 4° C. for 10 minutes, then centrifuged at 13,000×g for 10 minutes. The supernatant was saved for Western blot analysis.
SDS-PAGE and protein transfer were carried out by standard methods. The primary antibodies used were: rat monoclonal anti-Ci 2Al 1:20 dilution; mouse monoclonal anti-Ptc 1:1000 dilution; mouse monoclonal anti-actin 1:2500. Secondary antibodies were from Jackson Immunologicals. The filters were developed using SuperSignal from Pierce.
Tautomycin (TAU) and okadaic acid (OA) were purchased from Calbiochem and dissolved in dimethyl sulfoxide (DMSO) to different concentrations. The phosphatase inhibitors were mixed with conditioned medium and the concentration of DMSO was adjusted to 0.2% for each sample. cl-8 cells were incubated with conditioned medium and phosphatase inhibitor mixture for 4 hours and lysed for analysis.

ShhRE reporter gene = assay: Shh-N mediated induction of ShhRE reporter gene activity; assay type: cell-based, mouse; conditions: 5 nM (data not shown)
Procedure: Methods described above in Example 6 were used in addition to the following protocols. P19 cells were transfected with a ShhRE-tkLUC reporter plasmid and three copies of a mutant element called mShhRE-tkLUC and treated with or without 1 nM Shh. Cell lysates were obtained after 30 hours and were later assayed for luciferase reporter activity. A graph (FIG. 5B) representing relative luciferase units per twenty μg (RLU/20 μg) was plotted using results obtained from three separate experiments (mean ±sd).

Isl1 mRNA = Isl1 mRNA in P19 cells, RT-PCR; assay type: cell-based, mouse; conditions: 5 nM for 12 hours, 1 nM Shh-N for 24 hours
Procedure: Methods described in Example 6 were used in addition to the following protocols. P19 cells were treated with (FIG. 8A, lanes 2 and 4) or without (FIG. 8A, lanes 1 and 3) 1 nM Shh-N for 24 hours and 5 nM OA (FIG. 8A, lanes 3 and 4) for 12 hours and total RNA was obtained. An internal control containing a 763 bp insert into the SphI site of the Islet-1 cDNA was transcribed in vitro to prepare sense-oriented RNA. 1 ng of this RNA along with 100 ng of total RNA from appropriately treated P19 cells was reverse transcribed using Superscript II™ and one-tenth of each reaction was PCR amplified. Specific primers for Islet-1; Forward primer: 5′TCAAAC CTA CTT TGG GGT CTT A 3′SEQ ID NO:5. Reverse primer: 5′ATCGCCGGGGATGAGCTGGCGGCT 3′SEQ ID NO:6, and for COUP-TFII; Forward primer: 5′GATATGGCAATGGTAGTCAGCACGTGG 3′. SEQ ID NO:7, Reverse primer: 5′AGCTTCTCCACTTGCTCTTGG 3′SEQ ID NO:8, were used to PCR amplify (94° C. for 1 minute, 54° C. for 1 minute, and 72° C. for 1 minute. Twenty-two cycles were used for amplifying Islet-1 and the resulting products were separated on a 1% agarose gel in TAE buffer and visualized by ethidium bromide staining. A 1 kb DNA ladder (Stratagene) was used to estimate the size of the products. A 427 bp Isl1 fragment and a 838 bp COUP-TFII fragment was used to estimate changes in mRNA levels.

## C=C1[C@@H](O)[C@@H]2O[C@]3(CC[C@H](/C=C/[C@@H](C)[C@@H]4CC(C)=C[C@@]5(O[C@H](C[C@@](C)(O)C(=O)O)CC[C@H]5O)O4)O3)CC[C@H]2O[C@@H]1[C@@H](O)C[C@H](C)[C@H]1O[C@@]2(CCCCO2)CC[C@H]1C [OA, okadaic acid]
Ci; 1 nM, absence of HH signaling
  Ci level: significantly reduced
  Ci mobility form (phosphorylation): shifted Ci to the low mobility form
Ci; 5 to 10 nM
  Ci detection: completely undetectable
Ci; presence of HH
  Ci level and mobility: overcame the induction effect of HH
ShhRE reporter gene
  Shh-N mediated induction of ShhRE reporter gene activity: completely blocked
Isl1 mRNA
  Shh-N induction of Is11 mRNA: completely blocked
